Tests used:
U2OS-ERα cells [1] = test: KRT19 mRNA real-time PCR in U2OS-ERα cells; type: cell-based, human
Description: (§1) (FIG. 1a) Chemical structure of 2′, 3′, 4′-THC. (FIG. 1b) U2OS cells cotransfected with ERE tk-luciferase and ERα (left panel) or ERβ (right panel). After transfection the cells were treated for 24 hours with 10 nM estradiol and 5 μM 2′, 3′, 4′-THC alone or in combination. Cells were lysed and luciferase activity was measured. RLU is relative light units. Error bars are the Mean±SEM. **P≤0.01. […] The total cellular RNA was extracted and real-time PCR for KRT19 mRNA was performed as described in Materials and Methods. […] Error bars are ±SEM. *P≤0.05, **** P≤0.0001.
FIGS. 3a-3d. […] Error bars are ±SEM.

purified ERα = purified ERα (Homo sapiens, UniProt P03372); test: Fluorescent polarization with purified ERα; type: binding
Chain of purified ERα (P03372 whole entry): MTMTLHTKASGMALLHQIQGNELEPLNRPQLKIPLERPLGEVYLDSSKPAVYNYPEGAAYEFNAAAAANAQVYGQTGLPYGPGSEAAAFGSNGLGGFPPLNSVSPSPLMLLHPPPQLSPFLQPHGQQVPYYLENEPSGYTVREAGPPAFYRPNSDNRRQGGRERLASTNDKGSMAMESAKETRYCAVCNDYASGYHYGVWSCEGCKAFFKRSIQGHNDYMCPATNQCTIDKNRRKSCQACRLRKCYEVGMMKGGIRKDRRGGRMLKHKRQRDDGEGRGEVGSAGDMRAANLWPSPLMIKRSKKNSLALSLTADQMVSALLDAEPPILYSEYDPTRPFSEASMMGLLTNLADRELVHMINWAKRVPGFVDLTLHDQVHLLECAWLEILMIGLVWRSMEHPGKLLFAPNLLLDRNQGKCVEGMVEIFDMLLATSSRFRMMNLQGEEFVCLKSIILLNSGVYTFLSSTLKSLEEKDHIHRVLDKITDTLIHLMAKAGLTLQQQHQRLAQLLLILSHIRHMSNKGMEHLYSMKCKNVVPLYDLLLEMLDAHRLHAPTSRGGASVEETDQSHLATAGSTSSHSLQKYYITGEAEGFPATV

[2] = target: T1, human glucocorticoid receptor (Homo sapiens, UniProt P04150); test: GRE-TK-Luc reporter, U2OS cells cotransfected with hGR; type: cell-based; conditions: 5 μM + 10 nM dexamethasone, 24 hours
T1 construct: expressed in transfected cells; host or cells: U2OS
T1 sequence (P04150 1-777): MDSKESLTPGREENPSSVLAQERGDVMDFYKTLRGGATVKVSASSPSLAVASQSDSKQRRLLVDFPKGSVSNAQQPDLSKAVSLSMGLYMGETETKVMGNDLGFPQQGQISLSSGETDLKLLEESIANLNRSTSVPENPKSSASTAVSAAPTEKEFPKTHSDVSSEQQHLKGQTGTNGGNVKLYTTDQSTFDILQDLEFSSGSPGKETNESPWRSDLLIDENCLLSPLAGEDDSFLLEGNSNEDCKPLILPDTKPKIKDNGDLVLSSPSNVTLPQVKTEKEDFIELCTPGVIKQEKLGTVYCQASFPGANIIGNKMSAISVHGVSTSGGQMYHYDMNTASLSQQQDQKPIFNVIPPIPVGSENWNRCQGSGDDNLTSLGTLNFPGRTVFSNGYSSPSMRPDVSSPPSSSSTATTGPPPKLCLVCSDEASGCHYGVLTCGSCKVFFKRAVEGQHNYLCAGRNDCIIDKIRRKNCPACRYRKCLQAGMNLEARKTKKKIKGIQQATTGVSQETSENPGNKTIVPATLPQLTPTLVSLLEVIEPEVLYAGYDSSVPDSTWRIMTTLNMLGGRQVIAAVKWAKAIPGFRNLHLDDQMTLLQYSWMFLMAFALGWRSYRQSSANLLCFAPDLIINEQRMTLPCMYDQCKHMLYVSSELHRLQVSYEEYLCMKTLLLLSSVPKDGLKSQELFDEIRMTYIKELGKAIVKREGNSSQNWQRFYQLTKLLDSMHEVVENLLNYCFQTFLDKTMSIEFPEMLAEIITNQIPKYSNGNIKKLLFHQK

U2OS-ERα cells [3] = test: Microarray gene regulation in U2OS-ERα cells; type: cell-based, human
Description: Total cellular RNA was isolated utilizing the Aurum™ RNA isolation kit (Bio-Rad, Hercules, Calif.) per the manufacturer's directions. RNA isolates were first quantified by nanodrop®, and then qualitatively evaluated by the Bio-Rad Experion™ system per the manufacturer's instructions. Biotin-labeled cRNA samples were prepared using 750 ng of total RNA. Biotin-labeled samples were evaluated by both 260/280 absorbance spectrophotometry and capillary electrophoresis. Labeled cRNA samples were hybridized overnight against Human genome HG U133A-2.0 GeneChip® arrays, (Affymetrix, Santa Clara, Calif.). All treatments were done in triplicate with the same batch of microarrays. The data was analyzed as previously described (Saunier, E. F., et al. Estrogenic plant extracts reverse weight gain and fat accumulation without causing mammary gland or uterine proliferation. PloS one 6, e28333 (2011)).
FIGS. 2a-2f2′, 3′, 4′-THC behaves as a unique coagonist on gene expression in U2OS-ERα cells. […] Expression was assessed by up regulation or down regulation of 3-fold or more and a P-value≤0.05. […] Error bars are ±SEM.

mouse uterus = test: Uterine weight in intact female mice; type: in vivo; conditions: intact C57BL/6 female mice, daily intraperitoneal injection
Description: 8 week old C57b1/6J female ovariectomized or intact mice were purchased from Jackson Laboratories, Sacramento, Calif. Mice were housed and maintained according to OLAC standard procedures in the NAF facility at UC Berkeley, Calif. All mice were fed a soy-free chow diet 2916.15 (Harlan Laboratories, Livermore, Calif.) starting one week before osmotic pump implantation or 2′, 3′, 4′-THC injection. Pumps Model 2006 were purchased from Alzet and filled with vehicle, 1 μg […], 2 mg of 2′, 3′, 4′-THC or the combination of 2′, 3′, 4′-THC and estradiol. All drugs were dissolved in sterile vehicle consisting of 50% dimethylsulfoxide (DMSO), 25% ETOH and 25% deionized water. Pumps were handled with sterile gloves and filled using a 27 gauge filling tube and 1 mL syringe. All pumps were placed in 1X PBS in 15 mL sterile conical tubes and incubated overnight at 37° . Pumps were surgically implanted into 8 week old C57b1/6J female ovariectomized mice (Jackson Laboratory, Sacramento, Calif.) posterior to the scapula and left for a duration of 4 weeks. Intact mice were injected intraperitoneal with 2′, 3′, 4′-THC every day for 3 weeks. Mice were weighed once a week for the duration of the experiment. The intraperitoneal gonadal fat was removed and weighed. Uterine tissue was collected, fluid drained and then weighed.
FIGS. 5a-5h. 2′, 3′, 4′-THC acts as antagonist in the mouse uterus. […]

ERα [4] = target: T2, ERα (Homo sapiens, UniProt P03372); test: ChIP of ERα recruitment in MCF-7 cells; type: cell-based; set-up: expressed in transfected cells; conditions: 5 μM + 10 nM E2, 1 hour
T2 sequence (P03372 whole entry): as the sequence (P03372 whole entry) above

MCF-7 cells = test: ERE-TK-Luc transfection assay in MCF-7 cells; conditions: 1, 5 or 10 μM + 10 nM E2
ERα [5] = target: T2, ERα; test: ERE-tk luciferase transfection assay, U2OS cells cotransfected with ERα; type: cell-based; set-up: expressed in transfected cells; host or cells: U2OS
Description: as §1

Compound: O=C(/C=C/c1ccccc1)c1ccc(O)c(O)c1O [2′, 3′, 4′-THC, 2′, 3′, 4′-trihydroxychalcone]
- KRT19 gene expression, compound alone (U2OS-ERα cells [1]; 10 nM E2, 5 μM 2′,3′,4′-THC, 1 μM tamoxifen or raloxifene, 24 hours): no effect
- activation of the KRT19 gene in the presence of E2 (U2OS-ERα cells [1]; 1 and 5 μM 2′,3′,4′-THC, 24 h): synergistic activation
- effect on E2-induced KRT19 expression (U2OS-ERα cells [1]; in combination with 10 nM E2, 24 hours): synergistic activation
- IC50 relative to E2 (higher) (purified ERα): approximately 10,000 fold
- synergy with receptor agonist [2]: no synergy
- number of genes regulated, compound alone (U2OS-ERα cells [3]; 10 nM E2 or 5 μM 2′,3′,4′-THC, 3-fold or more, P≤0.05): 31 genes
- genes regulated by the combination that were also regulated by E2 (U2OS-ERα cells [3]; 5 μM + 10 nM E2): 534 genes
- number of genes regulated by the 2′,3′,4′-THC/E2 combination (U2OS-ERα cells [3]; 5 μM + 10 nM E2): 1,358 genes
- unique genes only regulated by the 2′,3′,4′-THC/E2 combination (U2OS-ERα cells [3]; 5 μM + 10 nM E2): 824 genes
- reduction of uterine growth compared to the control mice (mouse uterus): 50%
- effect on E2 induced ERα binding to the c-MYC enhancer (ERα [4]): inhibited
- effect on recruitment of ERα to the KRT19 ERE (ERα [4]): did not have a significant effect
- E2 activation of ERE-TK-Luc (MCF-7 cells): dose-dependent synergistic increase
- luciferase activity with E2 (ERα [5]; ERα, 5 μM chalcone + 10 nM E2, 24 hours): synergistic increase
- activity on ERE luciferase, compound alone (ERα [5]; U2OS cells transfected with ERα, 5 μM, 24 hours): inactive

Source: patent US20190008797A1, “ESTROGEN RECEPTOR ALPHA COLIGANDS, AND METHODS OF USE THEREOF” (priority 2016, published 2019)
